“Also recorded” adds a separate entry of the source.

The target of assay [1] is FhCB1 (Fasciola hepatica, UniProt Q8I7B2). Briefly: Inhibition of recombinant FhCB1, fluorogenic substrate assay (Z-Phe-Arg-AMC). Type of assay: biochemical. The method, then:
(§1) Recombinant peptidases were assayed for enzymatic activity using a fluorogenic substrate assay. The reactions were carried out in 0.1 M C-P buffer (pH 7.0) with 1 mM DTT in a final volume of 200 μL, in a black 96-well plate. Each well contained activated enzyme (140 nM) and 20 μM fluorogenic substrate, which was added to start the reaction. All assays were run in triplicate at 37 °C for 1 h. Enzyme activity was monitored by rate of hydrolysis and subsequent release of the AMC group on the synthetic peptide substrates at an excitation wavelength of 370 nm and an emission wavelength of 460 nm, as relative fluorescence units (RFU), in a PolarStar Omega Spectrophotometer (BMG Labtech, Aylesbury, UK). All data were plotted and analysed using MARS Data Analysis Software (BMG Labtech, UK) and GraphPad Prism version 5.
(§2) Commercially available inhibitors of cathepsin B (Ca074 and Ca074-OMe), cathepsin L (L, L1, LII, LIII and LIV), cathepsin K (KI, KII and KIII) and cathepsin S were purchased from Merck Millipore (Cork, Ireland; Supplementary Figure S2). The broad-spectrum papain peptidase inhibitor Z-Phe-Ala-FMK was purchased from Enzo Life Sciences (Exeter, UK). These were used to determine and compare the inhibition constant (Ki) against the recombinant FhCBs and FhCL3. All the assays were carried out in 0.1 M C-P buffer with 1 mM DTT and 0.01% Brij® L23, at the pH corresponding to the optimum for each enzyme in a total 200 µL reaction volume. The peptidases (140 nM) were pre-incubated with the inhibitor (1000-15 nM) at room temperature, for 30 min, before starting the reaction by the addition of the substrate that was optimal for each enzyme (FhCB1, Z-Phe-Arg-AMC; FhCB2 and FhCB3, Z-Val-Ile-Arg-AMC; FhCL3, Z-Gly-Pro-Arg-AMC). Substrate concentrations were equal to KM (shown in Table 1) and the apparent inhibition constant (Ki^app) values were calculated with GraphPad Prism 5, using the Morrison equation for tight binding inhibition (Equation (3)). For competitive inhibitors, such as those used in this study, Ki^app was fitted to a second equation (Equation (4)) from which Ki can be determined. (3) vi/vo=1−([E])+[I]+Kiapp)−([E]+[I]+Kiapp)^2−4[E][I] /2[E] (4) Kiapp=Ki(1+[S]/KM)

In assay [2] the target is FhCB2 (Fasciola hepatica, UniProt A5X493). Kind of assay: Inhibition of recombinant FhCB2, fluorogenic substrate assay (Z-Val-Ile-Arg-AMC). It is filed as biochemical. How it is done: as §1, §2
Assay [3] has as its target FhCB3 (Fasciola hepatica, UniProt A7UNB2). Briefly: Inhibition of recombinant FhCB3, fluorogenic substrate assay (Z-Val-Ile-Arg-AMC). Type of assay: biochemical. The method, then: as §1, §2
Assay [4] concerns the target FhCL3 (Fasciola hepatica, UniProt A0A879R2T5). Briefly: Inhibition of recombinant FhCL3, fluorogenic substrate assay (Z-Gly-Pro-Arg-AMC). Type of assay: biochemical. The method, then: as §1, §2
The target in assay [5] is T1, human cathepsin B (HsCB) (Homo sapiens, UniProt P07858).
T1 construct: purchased Sigma-Aldrich; host or cells: human embryonic kidney cells
Kind of assay: Inhibitor screen against human cathepsin B control. It is filed as biochemical.
From the text: The Schistosoma mansoni cathepsin B1 (SmCB1) was also produced in our laboratory using P. pastoris as described above. The human cathepsin B (HsCB) and cathepsin L1 (HsCL1) were produced in human embryonic kidney cells (Sigma-Aldrich).
as §2, with “All the assays were carried out in 0.1 M C-P buffer with 1 mM DTT and 0.01% Brij® L23, at the pH corresponding to the optimum for each enzyme in a total 200 µL reaction volume. The peptidases (140 nM) were pre-incubated with the inhibitor (1000-15 nM) at room temperature, for 30 min, before starting the reaction by the addition of the substrate that was optimal for each enzyme (FhCB1, Z-Phe-Arg-AMC; FhCB2 and FhCB3, Z-Val-Ile-Arg-AMC; FhCL3, Z-Gly-Pro-Arg-AMC).” left out
The broad-range cysteine peptidase inhibitor Z-Phe-Ala-FMK was also included (Figure 5).
Figure 5 Profile of inhibition of FhCB1, FhCB2, FhCB3 and FhCL3. Commercially available inhibitors of cathepsin B (Ca074 and Ca07a-OMe), cathepsin L (L, L1, LII, LIII and LIV), cathepsin K (KI, KII and KIII), cathepsin S and the broad-spectrum papain peptidase inhibitor Z-Phe-Ala-FMK (A–L) were used to determine and compare the inhibition constant against recombinants FhCB1, FhCB2, FhCB3, FhCL3, HsCB and HsCL1. […] Error bars indicate standard deviation of three replicates.

In assay [6] the test system is NEJ. Also noted: method as in PMID 19401154. The note with it: concentration of 6.25 μM; cited from earlier work.

FhCB3, sequence (A7UNB2 entry or part of it): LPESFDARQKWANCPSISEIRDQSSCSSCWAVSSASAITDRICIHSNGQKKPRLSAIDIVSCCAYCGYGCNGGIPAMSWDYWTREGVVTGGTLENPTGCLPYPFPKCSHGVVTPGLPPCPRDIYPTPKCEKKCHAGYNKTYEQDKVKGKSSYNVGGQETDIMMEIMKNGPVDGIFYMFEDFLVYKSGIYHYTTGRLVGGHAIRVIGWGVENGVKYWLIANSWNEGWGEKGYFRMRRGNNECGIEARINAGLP
FhCB2, sequence (A5X493 entry or part of it): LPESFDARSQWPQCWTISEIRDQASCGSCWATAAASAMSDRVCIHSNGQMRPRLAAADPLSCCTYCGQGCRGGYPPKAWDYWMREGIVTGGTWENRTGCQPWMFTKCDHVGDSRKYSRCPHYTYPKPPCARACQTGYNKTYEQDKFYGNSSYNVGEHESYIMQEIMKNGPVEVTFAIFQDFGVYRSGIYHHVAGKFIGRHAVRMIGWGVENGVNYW
FhCL3, sequence (A0A879R2T5 entry or part of it): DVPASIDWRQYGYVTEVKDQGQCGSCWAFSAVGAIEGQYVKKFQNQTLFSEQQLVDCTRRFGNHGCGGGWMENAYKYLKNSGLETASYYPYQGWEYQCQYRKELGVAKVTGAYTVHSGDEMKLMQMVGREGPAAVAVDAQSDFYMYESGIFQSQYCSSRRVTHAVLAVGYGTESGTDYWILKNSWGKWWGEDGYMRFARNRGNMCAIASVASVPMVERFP
FhCB1, sequence (Q8I7B2 entry or part of it): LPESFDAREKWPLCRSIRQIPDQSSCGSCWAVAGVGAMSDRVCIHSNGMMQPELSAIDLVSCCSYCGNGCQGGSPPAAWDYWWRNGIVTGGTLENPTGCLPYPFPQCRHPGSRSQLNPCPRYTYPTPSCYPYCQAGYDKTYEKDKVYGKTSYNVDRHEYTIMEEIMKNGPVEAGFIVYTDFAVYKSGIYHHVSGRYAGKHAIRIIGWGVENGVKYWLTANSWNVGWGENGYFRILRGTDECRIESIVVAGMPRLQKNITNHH

As for `CCCNC(=O)[C@H]1O[C@@H]1C(=O)N[C@H](C(=O)N1CCC[C@H]1C(=O)OC)[C@@H](C)CC` [Ca074ME], the “inhibition of enzymatic activity (inhibitor screen, Figure 5), in words” value is listed as “poor inhibitors; also recorded: very poor inhibitors” in assay [1] (FhCB1, inhibitor 1000-15 nM, listed as Ca074-OMe); “poor inhibitors; also recorded: very poor inhibitors” in assay [2] (FhCB2, inhibitor 1000-15 nM, listed as Ca074-OMe); “poor inhibitors; also recorded: very poor inhibitors” in assay [3] (FhCB3, inhibitor 1000-15 nM, listed as Ca074-OMe); “poor inhibitors” in assay [4] (FhCL3, inhibitor 1000-15 nM); “selective for HsCB compared to HsCL1” in assay [5]. For the same compound, the “inhibition constant Ki” value is “poor inhibition” in assay [1] (recombinant FhCB1 140 nM, 30 min pre-incubation, substrate Z-Phe-Arg-AMC at KM, optimum pH, ± SEM); “poor inhibition” in assay [2] (recombinant FhCB2 140 nM, 30 min pre-incubation, substrate Z-Val-Ile-Arg-AMC at KM, optimum pH, ± SEM); “poor inhibition” in assay [3] (recombinant FhCB3 140 nM, 30 min pre-incubation, substrate Z-Val-Ile-Arg-AMC at KM, optimum pH, ± SEM); “poor inhibition” in assay [4] (recombinant FhCL3 140 nM, 30 min pre-incubation, substrate Z-Gly-Pro-Arg-AMC at KM, optimum pH, ± SEM). The Ki (commonly a dissociation constant, usually derived from enzyme kinetics or from competition with a known ligand) is 5500 ± 1190 nM in assay [1] (recombinant FhCB1 140 nM, 30 min pre-incubation, substrate Z-Phe-Arg-AMC at KM, optimum pH, ± SEM, read-out: inhibition constant Ki); 785 ± 130 nM in assay [3]; 249 ± 35.5 nM in assay [4] (inhibition constant Ki, recombinant FhCL3 140 nM, 30 min pre-incubation, substrate Z-Gly-Pro-Arg-AMC at KM, optimum pH, ± SEM). Besides, the “effect on cultured NEJ” value in assay [6] is listed as “sub-lethal effect”.

The values are drawn from PMC8698070, “The Zoonotic Helminth Parasite Fasciola hepatica: Virulence-Associated Cathepsin B and Cathepsin L Cysteine Peptidases Secreted by Infective Newly Excysted Juveniles (NEJ)” (Animals : an Open Access Journal from MDPI, 2021).
